Assay results published in patent publication US20030114512A1, “Compounds with 5-ht2 and 5-ht1a agonist activity for treating glaucoma” (priority 2002, published 2003).

Key:
5-HT1A receptor = target: T1, 5-HT1A receptor (UniProt P08908); experiment: 5-HT1A functional assays (inhibition of forskolin-stimulated adenylate cyclase / cAMP); format: biochemical; conditions: for EC50: read-out: EC50, nM (SEM) 5-HT1A functional
T1 sequence (P08908 1-422): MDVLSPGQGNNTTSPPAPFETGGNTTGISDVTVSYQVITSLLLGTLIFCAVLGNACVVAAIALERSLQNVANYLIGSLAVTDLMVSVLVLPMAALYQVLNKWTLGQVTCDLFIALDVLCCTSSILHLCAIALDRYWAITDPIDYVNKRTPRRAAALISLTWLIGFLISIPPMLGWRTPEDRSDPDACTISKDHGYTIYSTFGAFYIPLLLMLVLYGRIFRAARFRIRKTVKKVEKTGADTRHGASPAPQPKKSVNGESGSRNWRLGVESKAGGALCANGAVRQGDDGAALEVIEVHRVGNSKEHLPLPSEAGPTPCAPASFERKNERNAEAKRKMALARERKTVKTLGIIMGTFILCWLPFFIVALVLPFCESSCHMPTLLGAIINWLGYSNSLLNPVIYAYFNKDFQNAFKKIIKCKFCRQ
Protocol: The function of Compounds of the present invention can be determined using a variety of methods to assess the functional activity of 5-HT1A agonists. One such assay is performed using hippocampal slices from male Sprague-Dawley rats, measuring the inhibition of forskolin-stimated adenylate cyclase [J. Med. Chem. 42. 36 (1999), J. Neurochem. 56, 1114 (1991), J. Pharm. Exper. Ther. 284:1082 (1998). Rat hippocampal membranes were homogenized in 25 volumes of 0.3 M sucrose containing 1 mM EGTA, 5 mM EDTA, 5 mM dithiothreitol, and 20 mM Tris-HCl, pH 7.4 at 25° C. The homogenate was centrifuged for 10 m in at 1,000×g. The supernatant subsequently was centrifuged at 39,000×g for 10 min. The resulting pellet was re-suspended in homogenization buffer at a protein concentration of approximately 1 mg/ml and aliquots were stored at −140° C. Prior to use, the membranes were rehomogenized in a Potter-Elvehjem homogenizer. Fifty μl of the membrane suspension (50 μg protein) were added to an incubation buffer containing 100 mM NaCl, 2 mM magnesium acetate, 0.2 mM ATP, 1 mM cAMP, 0.01 mM GTP, 0.01 mM forskolin, 80 mM Tris-HCl, 5 mM creatine phosphate, 0.8 U/μl creatine phosphokinase, 0.1 mM IBMX, 1-2 μCi α-[^32P]ATP. Incubations with test compounds (10 min at 30° C.) were initiated by the addition of the membrane solution to the incubation mixture (prewarmed 5 min at 30° C.). [^32P]cAMP was measured according to the method of Salomon (Adv. Cyclic Nucleotide Res. 10:35-55, 1979). Protein was measure using the Bradford (Anal. Biochem 72:248-254, 1976) assay.
Functional activity can also be determined in recombinant human receptors according to the method of Schoeffter et al., (Neuropharm. 36:429-437, 1997). HeLa cells transfected with recombinant human 5-HT1A receptors were grown to confluence in 24-well plates. The cells were rinsed with 1 ml of Hepes-buffered saline (in mM) NaCl 130, KCl 5.4, CaCl2, 1.8, MgSO4 0.8, NaH2PO4 0.9, glucose 25, Hepes 20, pH 7.4, and phenol red 5 mg/l. The cells were labelled with 6 μCi/ml of [^3H] adenine (23 Ci/mmol, Amersham, Rahn AG, Zurich, Switzerland) in 0.5 ml of saline at 37° C. for 2 hr. The plates were subsequently rinsed twice with 1 ml of buffered saline containing 1 mM isobutylmethylxanthine. The cells were incubated for 15 min in 1 ml of this solution (37° C.) in the presence or absence of 10 μM forskolin and the test compound. The buffer was then removed and 1 ml of 5% trichloroacetic acid (TCA) containing 0.1 mM cAMP and 0.1 mM ATP was added to extract the samples. After 30 min at 4° C., the TCA extracts were subjected to chromatographic separation on Dowex AG 50W-X4 and alumina columns (Salomon, Methods in Enzymology 195: 22-28, 1991). Cyclic AMP production was calculated as the ratio [^3H]cAMP/([^3H]cAMP+[^3H]ATP).

[1] = tested on: photooxidative induced retinopathy; experiment: Neuroprotective effects in the rat photooxidative induced retinopathy model (ERG); format: in vivo, Sprague Dawley rat; conditions: for A-wave Amplitude Mean / B-wave Amplitude Mean: ERG after five day recovery
Protocol: Neuroprotective Effects in the Rat Photooxidative Induced Retinopathy Model
Male Sprague Dawley rats were randomly assigned to vehicle treatment (saline) or drug treatment (dissolved in saline) experimental groups. α-methyl-5-hydroxytryptamine (1, 5, and 10 mg/kg) or vehicle was administered by subcutaneous (SC) injection at 48, 24, and 0 hours prior to light exposure and once 24 hours after a 6-hour light exposure to spectrally filtered blue light (˜220 fc). Control rats were housed in their home cage under normal cyclic light exposure. Rats were single housed in clear polycarbonate cages during this light exposure.
The electroretinogram (ERG) was recorded after a five day recovery period from dark-adapted anesthetized rats (Ketamine-HCl, 75 mg/Kg; Xylazine, 6 mg/Kg). The eye's electrical response to a flash of light was elicited by viewing a ganzfeld. ERGs to a series of light flashes increasing in intensity were digitized to analyze temporal characteristics of the waveform and determine the response voltage-log intensity (VlogI) relationship. Changes in the ERG a-wave are associated with photoreceptor and retinal pigment epithelium damage while damage to the inner retina is reflected in changes in the ERG b-wave.

SMILES	Efficacy (Emax, %) 5-HT1A functional (5-HT1A receptor) [%]	EC50 (5-HT1A receptor) [nM]	Maximum a- and b-wave response amplitudes compared with vehicle dosed rats ([1]; 1.0 mg/kg)	Maximum a- and b-wave response amplitudes, % of control animals ([1]; 1.0 mg/kg)	A-wave Amplitude Mean ([1]; 1.0 mg/kg SC) [μV]	B-wave Amplitude Mean ([1]; 1.0 mg/kg SC) [μV]	A-wave Amplitude Mean ([1]; 5.0 mg/kg SC) [μV]	B-wave Amplitude Mean ([1]; 5.0 mg/kg SC) [μV]	A-wave Amplitude Mean ([1]; 10.0 mg/kg SC) [μV]	B-wave Amplitude Mean ([1]; 10.0 mg/kg SC) [μV]	Protection of retina function against photo-oxidative induced retinopathy ([1]; 1, 5 and 10 mg/kg SC)	Maximum a- and b-wave response amplitudes compared with vehicle dosed rats ([1]; 5 and 10 mg/kg)	Maximum a-wave response amplitude, % of control animals ([1]; 5 and 10 mg/kg, first of 'respectively' values)	Maximum b-wave response amplitude, % of control animals ([1]; 5 and 10 mg/kg, second of 'respectively' values) [%]
CC(N)Cn1ccc2ccc(O)cc21.O=C(O)/C=C/C(=O)O (stereo not drawn) [1-(2-aminopropyl) 6-hydroxyindole fumarate]	89	780	–	–	–	–	–	–	–	–	–	–	–	–
COc1ccc2[nH]cc(CC(C)N)c2c1.O=C(O)/C=C/C(=O)O (stereo not drawn) [α-Methyl 5-methoxytryptamine fumarate]	92	570	–	–	–	–	–	–	–	–	–	–	–	–
CC(N)Cc1c[nH]c2ccc(O)cc12.O=C(O)/C=C\C(=O)O (stereo not drawn) [α-Methyl 5-hydroxytryptamine maleate, 3-(2-aminopropyl)-1H-indol-5-ol]	100	378	not significantly different than vehicle dosed rats	approximately 30%	237.8	555	471.93	1123	477.7	1126	dose-dependent protection of outer and inner retina function	significantly higher than responses measured in vehicle dosed rats	approximately 58%	~62
